Test results from patent publication US20250062040A1, “COMPUTER-BASED SYSTEMS FOR ACQUIRING AND ANALYZING OBS[…] DATA” (priority 2021, published 2025).

Experiments:
[1] = DBSA query with scopolamine target signature; assay type: in vivo
From the text: In some embodiments, illustrative computing devices of the present disclosure can be programmed with one or more techniques of the present disclosure to identify a novel cognitive enhancer compound by querying a large library of compounds profiled in by a behavioral platform. This example is based on a hypothesis that compounds with a drug-induced behavioral data profile that is reversed to that of scopolamine, which impairs cognition, are potentially cognitive enhancers. Other ways to impair cognition, such as other drugs or genetic manipulations, can be used to generate similar hypotheses.
The target signature was used to query a library of list signatures associated with active library and reference compounds to rank the compounds by their capacity to reverse the behavioral response to scopolamine.

[2] = eye temperature by automated thermographic system of behavioral platform; assay type: in vivo, mice; conditions: various doses, FIG. 39
From the text: In some embodiments, with regard to image calibration, in an experimental session, actual Peltier temperatures may be logged and saved along with the thermal camera video. The logged Peltier temperatures in Celsius can be paired to the optical density (OD) levels measured at the two Peltier ROIs in each corresponding frame, so that a linear calibration curve can be used to convert the OD of measured eye ROIs to degrees Celsius.
In some embodiments, the subject body, such as a mouse, can be segmented based on the optical density distribution on each frame. The contour of the mouse can be masked by finding the largest eight-connected objects in the binarized image as shown in FIG. 36. […] The size of the eye region relative to the mask and shape properties such as ‘Eccentricity’ (ratio of the distance between the foci of the ellipse and its major axis length) and ‘Solidity’ (proportion of the pixels in the convex hull that are also in the region, computed as Area/ConvexArea) can be measured to filter out false positives, when those parameters may be outside of the range learned from manually annotated ground truth examples.
In some embodiments, with regard to feature extraction, the average OD of automatically detected eye ROIs can be converted to Celsius based on the calibration curve. […]

[3] = tested on: Q175 heterozygous (HET) mice model of Huntington Disease; assay: DBSA query with Q175 HET target signature; assay type: in vivo; conditions: Q175 HET at 6 months vs WT
From the text: In some embodiments, illustrative computing devices of present disclosure can be programmed with one or more techniques of the present disclosure to screen active reference compounds against an animal model of a neurodegenerative disease. As an example, in an application of DBSA, the Q175 heterozygous (HET) mice model of Huntington Disease was used to generate a target signature. Male and female cohorts of the Q175 HET model mice at 6 months were compared against the associated wild type (WT) controls. The DBSA Target signature model for the Q175 HET at 6 months is, for example, illustrated in FIG. 56. The target signature was used to query a database containing list signatures for reference compounds profiled at multiple doses.
(§1) Of interest was the identification of the atypical antidepressant tianeptine, currently not used for the treatment of HD in the clinic. […] A control group of WT mice was treated equally with saline. […] The beneficial effect of tianeptine was quantified using DRFA, which transforms the original subject feature profile to a non-redundant, decorrelated ranked 2D features space. The non-redundant decorrelated ranked features space was used to calculate the discrimination between control (WT treated with saline) and disease group (Q175 HET group treated with saline). The disease group (Q175 HET) treated with tianeptine was then projected onto this 2D space and its proximity to the control group was calculated.

[4] = pEEG deep learning drug class classifier; assay type: in vivo; conditions: classifier trained with a set that did not include the drug, FIG. 25
From the text: Briefly, the network may be based on a bidirectional Long Short-Term Memory (LSTM, 32 hidden units) layer, two fully connected layers (“elu and “softmax” activations), batch normalization and dropout layers. The model may be trained using cross-entropy loss function and “adam” optimizer, for at least 30-50 epochs. The last layer of the model may be a dense layer, which may provide probabilities for more than a dozen drug classes.
In some embodiments, to improve the robustness of the predictive model, independent implementations of a general model architecture may be built by randomly initializing the weights for the RNN. Final predictions may be derived from the model with highest accuracy, or from the average such as the median or mean results from all trained models. To check the accuracy of the resulting model system, different cross validation approaches may be used such as a n-samples-out, or n-doses-out, and/or a whole-drug-out, where an n-samples subset, an n-doses subset, and/or a whole drug, respectively, may be systematically removed from the training dataset, and the rest of the drugs may be used for training a new model. The excluded data may then be used for model validation as a test set. Model prediction may be done at a sample level, so as to get a prediction for a given drug-dose. […]

Q175 HET mice = assay: treatment of Q175 HET mice, recovery quantified using DRFA; assay type: in vivo; conditions: 20 mg/kg, FIG. 62
Method: as §1

## CN1[C@@H]2C[C@@H](OC(=O)[C@H](CO)c3ccccc3)C[C@H]1[C@@H]1O[C@@H]12 [scopolamine]
[1]; FIG. 59, at a different dose than the one used for the DBSA model
  DBSA similarity to scopolamine target signature: among the most similar compounds

## CNC(C)Cc1ccc2c(c1)OCO2 (centres unmarked) [MDMA, 3,4-methylenedioxymethamphetamine]
[2]
  eye temperature: dose-dependent increase of eye temperature

## CC(NC(C)(C)C)C(=O)c1cccc(Cl)c1 (centres unmarked) [bupropion]
[3]
  DBSA prediction against Q175 HET target signature: top predictions
[4]
  therapeutic class signature by pEEG classifier: more stimulant profile

## COc1cc2c(cc1OC)C(=O)C(CC1CCN(Cc3ccccc3)CC1)C2 (centres unmarked) [donepezil]
[1]; FIG. 60
  DBSA reverse list signature to scopolamine target signature: among the top reverse list signature predictions

## COC(=O)C(c1ccccc1)C1CCCCN1 (centres unmarked) [methylphenidate]
[3]
  DBSA prediction against Q175 HET target signature: top predictions

## NC(=O)C[S+]([O-])C(c1ccccc1)c1ccccc1 (centres unmarked) [modafinil]
[3]
  DBSA prediction against Q175 HET target signature: top predictions

## CN1c2ccccc2C(NCCCCCCC(=O)O)c2ccc(Cl)cc2S1(=O)=O (centres unmarked) [tianeptine]
Q175 HET mice; acutely
  rescue of behavioral phenotype of Q175 HET mice: significantly rescued the behavioral phenotype
Q175 HET mice; chronically (4-week regimen)
  rescue of behavioral phenotype of Q175 HET mice: significantly rescued the behavioral phenotype
[3]
  DBSA prediction against Q175 HET target signature: novel prediction

## CN(C)CCC=C1c2ccccc2CCc2ccccc21 [Amitriptyline]
[4]
  therapeutic class signature by pEEG classifier: clean antidepressant signal
